# Laboratory results reported in patent US9593107B2, “Dihydroquinoline-2-one derivatives” (Hoffmann-La Roche Inc., priority 2014, dated 2017).
# Columns and labels:
# [1] = target: T1, human CYP11B2 (Homo sapiens, UniProt P19099); assay: G-402 cellular enzyme assay, human CYP11B2 (aldosterone release, HTRF); assay type: cell-based; conditions: G-402 cells expressing human CYP11B2; 1 μM Deoxycorticosterone
# T1 construct: expressed in transfected cells
# T1 sequence (P19099 25-503): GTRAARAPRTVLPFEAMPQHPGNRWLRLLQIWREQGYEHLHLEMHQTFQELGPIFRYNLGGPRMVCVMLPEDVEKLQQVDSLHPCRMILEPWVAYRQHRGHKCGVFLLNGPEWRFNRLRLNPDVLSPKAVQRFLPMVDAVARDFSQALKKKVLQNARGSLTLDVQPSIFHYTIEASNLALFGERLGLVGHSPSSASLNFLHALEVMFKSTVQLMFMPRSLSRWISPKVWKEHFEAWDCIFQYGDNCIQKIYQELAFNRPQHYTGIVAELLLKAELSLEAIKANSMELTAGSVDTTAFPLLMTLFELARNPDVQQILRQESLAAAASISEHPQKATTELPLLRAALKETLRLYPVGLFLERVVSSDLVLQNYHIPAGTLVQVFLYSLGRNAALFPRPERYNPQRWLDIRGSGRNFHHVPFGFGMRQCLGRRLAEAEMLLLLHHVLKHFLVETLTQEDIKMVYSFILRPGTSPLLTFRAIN
# Description: (§1) Herein we identified the use of the G-402 cell line as a host cell to ectopically express (transiently or stably) enzymes of the CYP11 family. Specifically we developed stable G-402 cells expressing ectopically human CYP11B1, human CYP11B2, human CYP11A1, cynmolgus CYP11B1 or cynomolgus CYP11B2 enzyme activity. Importantly the identified cell line G-402 expresses co-factors (adrenodoxin and adrenodoxin reductase) important for the activity of the CYP11 family and no relevant enzyme activity of the CYP11 family (in comparison to H295R cells) was detected in these cells. Therefore the G-402 cell line is uniquely suited as a host cell for the ectopic expression of enzymes from the CYP11 family.
# (§2) The expression plasmids contains the ORF for either human/cyno CYP11B1 or CYP11B2 under the control of a suitable promoter (CMV-promoter) and a suitable resistance marker (neomycin). Using standard techniques the expression plasmid is transfected into G-402 cells and these cells are then selected for expressing the given resistance markers. Individual cell-clones are then selected and assessed for displaying the desired enzymatic activity using 11-Deoxycorticosterone (Cyp11B2) or 11-Deoxycortisol (Cyp11B1) as a substrate.
# (§3) G-402 cells expressing CYP11 constructs were established as described above and maintained in McCoy's 5a Medium Modified, ATCC Catalog No. 30-2007 containing 10% FCS and 400 μg/ml G418 (Geneticin) at 37° C. under an atmosphere of 5% CO2/95% air.
# (§4) Cellular enzyme assays were performed in DMEM/F12 medium containing 2.5% charcoal treated FCS and appropriate concentration of substrate (0.3-10 uM 11-Deoxycorticosterone, 11-Deoxycortisol or Corticosterone). For assaying enzymatic activity, cells were plated onto 96 well plates and incubated for 16 h. An aliquot of the supernatant is then transferred and analyzed for the concentration of the expected product (Aldosterone for CYP11B2; Cortisol for CYP11B1). The concentrations of these steroids can be determined using HTRF assays from CisBio analyzing either Aldosterone or Cortisol.
# (§5) Inhibition of the release of produced steroids can be used as a measure of the respective enzyme inhibition by test compounds added during the cellular enzyme assay. The dose dependent inhibition of enzymatic activity by a compound is calculated by means of plotting added inhibitor concentrations (x-axes) vs. measured steroid/product level (y-axes). The inhibition is then calculated by fitting the following 4-parameter sigmoidal function (Morgan-Mercer-Flodin (MMF) model) to the raw data points using the least squares method:
# (§6) [formula] wherein, A is the maximum y value, B is the EC50 factor determined using XLFit, C is the minimum y value and D is the slope value.
# (§7) EC50 values for compounds claimed herein were tested with the G402-based assay system described. Cyp11B2 enzyme activity was tested in presence of 1 μM Deoxycorticosterone and variable amounts of inhibitors; Cyp11B1 enzyme activity was tested in presence of 1 μM Deoxycortisol and variable amounts of inhibitors.
# [2] = target: T2, human CYP11B1 (Homo sapiens, UniProt P15538); assay: G-402 cellular enzyme assay, human CYP11B1 (cortisol release, HTRF); assay type: cell-based; conditions: G-402 cells expressing human CYP11B1; 1 μM Deoxycortisol
# T2 construct: expressed in transfected cells
# T2 sequence (P15538 25-503): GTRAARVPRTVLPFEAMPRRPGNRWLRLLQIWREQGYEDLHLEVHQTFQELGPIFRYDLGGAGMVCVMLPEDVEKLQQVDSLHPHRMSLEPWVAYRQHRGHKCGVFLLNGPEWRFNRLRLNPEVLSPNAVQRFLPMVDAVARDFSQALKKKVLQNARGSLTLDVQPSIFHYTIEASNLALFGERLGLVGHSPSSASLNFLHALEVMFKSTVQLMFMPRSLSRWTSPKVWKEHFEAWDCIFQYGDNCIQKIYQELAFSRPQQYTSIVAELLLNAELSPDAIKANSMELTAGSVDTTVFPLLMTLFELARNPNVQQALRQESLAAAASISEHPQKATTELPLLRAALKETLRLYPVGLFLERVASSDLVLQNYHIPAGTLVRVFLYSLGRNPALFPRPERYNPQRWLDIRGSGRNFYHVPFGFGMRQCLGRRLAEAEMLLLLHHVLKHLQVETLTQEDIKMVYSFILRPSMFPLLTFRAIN
# Description: as §1, §2, §3, §4, §5, §6, §7
structure (smiles),measurement,setting,value
"CN1C(=O)CCc2cc(-c3cncc(Cn4c(=O)sc5ccccc54)c3)ccc21 [Example 1, 1-Methyl-6-[5-(2-oxo-benzothiazol-3-ylmethyl)-pyridin-3-yl]-3,4-dihydro-1H-quinolin-2-one]",EC50,[1],1.4 nM
same,EC50,[2],177 nM
"CN1C(=O)CCc2cc(-c3cncc(Cn4cc(F)ccc4=O)c3)ccc21 [Example 2, 6-[5-(5-Fluoro-2-oxo-2H-pyridin-1-ylmethyl)-pyridin-3-yl]-1-methyl-3,4-dihydro-1H-quinolin-2-one]",EC50,[1],18.5 nM
same,EC50,[2],935 nM
"CN1C(=O)CCc2cc(-c3cncc(Cn4ccsc4=O)c3)ccc21 [Example 3, 1-Methyl-6-[5-(2-oxo-thiazol-3-ylmethyl)-pyridin-3-yl]-3,4-dihydro-1H-quinolin-2-one]",EC50,[1],3.6 nM
same,EC50,[2],275 nM
"CN1C(=O)CCc2cc(-c3cncc(Cn4cccc(Cl)c4=O)c3)ccc21 [Example 4, 6-[5-(3-Chloro-2-oxo-2H-pyridin-1-ylmethyl)-pyridin-3-yl]-1-methyl-3,4-dihydro-1H-quinolin-2-one]",EC50,[1],29.3 nM
same,EC50,[2],1220 nM
"CN1C(=O)CCc2cc(-c3cncc(Cn4cc(C(F)(F)F)cc(F)c4=O)c3)ccc21 [Example 5, 6-[5-(3-Fluoro-2-oxo-5-trifluoromethyl-2H-pyridin-1-ylmethyl)-pyridin-3-yl]-1-methyl-3,4-dihydro-1H-quinolin-2-one]",EC50,[1],13.2 nM
same,EC50,[2],1080 nM
"CN1C(=O)CCc2cc(-c3cncc(Cn4cccc(F)c4=O)c3)ccc21 [Example 6, 6-[5-(3-Fluoro-2-oxo-2H-pyridin-1-ylmethyl)-pyridin-3-yl]-1-methyl-3,4-dihydro-1H-quinolin-2-one]",EC50,[1],32.7 nM
same,EC50,[2],4070 nM
"Cc1cccc(=O)n1Cc1cncc(-c2ccc3c(c2)CCC(=O)N3C)c1 [Example 7, 1-Methyl-6-[5-(6-methyl-2-oxo-2H-pyridin-1-ylmethyl)-pyridin-3-yl]-3,4-dihydro-1H-quinolin-2-one]",EC50,[1],8.8 nM
same,EC50,[2],820 nM
"Cc1ccn(Cc2cncc(-c3ccc4c(c3)CCC(=O)N4C)c2)c(=O)c1 [Example 8, 1-Methyl-6-[5-(4-methyl-2-oxo-2H-pyridin-1-ylmethyl)-pyridin-3-yl]-3,4-dihydro-1H-quinolin-2-one]",EC50,[1],27 nM
same,EC50,[2],1050 nM
"CN1C(=O)CCc2cc(-c3cncc(Cn4cc(Cl)ccc4=O)c3)ccc21 [Example 9, 6-[5-(5-Chloro-2-oxo-2H-pyridin-1-ylmethyl)-pyridin-3-yl]-1-methyl-3,4-dihydro-1H-quinolin-2-one]",EC50,[1],10.5 nM
same,EC50,[2],516 nM
"CN1C(=O)CCc2cc(-c3cncc(Cn4ccccc4=O)c3)ccc21 [Example 10, 1-Methyl-6-[5-(2-oxo-2H-pyridin-1-ylmethyl)-pyridin-3-yl]-3,4-dihydro-1H-quinolin-2-one]",EC50,[1],29 nM
same,EC50,[2],1230 nM
"CN1C(=O)CCc2cc(-c3cncc(Cn4cccc(C(F)(F)F)c4=O)c3)ccc21 [Example 11, 1-Methyl-6-[5-(2-oxo-3-trifluoromethyl-2H-pyridin-1-ylmethyl)-pyridin-3-yl]-3,4-dihydro-1H-quinolin-2-one]",EC50,[1],18.1 nM
same,EC50,[2],738 nM
"Cc1nccc(=O)n1Cc1cncc(-c2ccc3c(c2)CCC(=O)N3C)c1 [Example 12, 1-Methyl-6-[5-(2-methyl-6-oxo-6H-pyrimidin-1-ylmethyl)-pyridin-3-yl]-3,4-dihydro-1H-quinolin-2-one]",EC50,[1],7.4 nM
same,EC50,[2],256 nM
"CN1C(=O)CCc2cc(-c3cncc(Cn4cccnc4=O)c3)ccc21 [Example 13, 1-Methyl-6-[5-(2-oxo-2H-pyrimidin-1-ylmethyl)-pyridin-3-yl]-3,4-dihydro-1H-quinolin-2-one]",EC50,[1],89.2 nM
same,EC50,[2],5570 nM
"CN1C(=O)CCc2cc(-c3cncc(Cn4ccc(C#N)cc4=O)c3)ccc21 [Example 14, 1-[5-(1-Methyl-2-oxo-1,2,3,4-tetrahydro-quinolin-6-yl)-pyridin-3-ylmethyl]-2-oxo-1,2-dihydro-pyridine-4-carbonitrile]",EC50,[1],8.8 nM
same,EC50,[2],356 nM
"CN1C(=O)CCc2cc(-c3cncc(Cn4cc(C(F)(F)F)ccc4=O)c3)ccc21 [Example 15, 1-Methyl-6-[5-(2-oxo-5-trifluoromethyl-2H-pyridin-1-ylmethyl)-pyridin-3-yl]-3,4-dihydro-1H-quinolin-2-one]",EC50,[1],19.6 nM
same,EC50,[2],680 nM
"CN1C(=O)CCc2cc(-c3cncc(Cn4cc(C#N)ccc4=O)c3)ccc21 [Example 16, 1-[5-(1-Methyl-2-oxo-1,2,3,4-tetrahydro-quinolin-6-yl)-pyridin-3-ylmethyl]-6-oxo-1,6-dihydro-pyridine-3-carbonitrile]",EC50,[1],67.3 nM
same,EC50,[2],2420 nM
"CN1C(=O)CCc2cc(-c3cncc(Cn4c(Cl)cccc4=O)c3)ccc21 [Example 17, 6-[5-(6-Chloro-2-oxo-2H-pyridin-1-ylmethyl)-pyridin-3-yl]-1-methyl-3,4-dihydro-1H-quinolin-2-one]",EC50,[1],2.2 nM
same,EC50,[2],363 nM
"CN1C(=O)CCc2cc(-c3cncc(Cn4c(F)cccc4=O)c3)ccc21 [Example 18, 6-[5-(6-Fluoro-2-oxo-2H-pyridin-1-ylmethyl)-pyridin-3-yl]-1-methyl-3,4-dihydro-1H-quinolin-2-one]",EC50,[1],4.1 nM
same,EC50,[2],172 nM
"CN1C(=O)CCc2cc(-c3cncc(Cn4cccc(F)c4=O)c3)c(F)cc21 [Example 19, 7-Fluoro-6-[5-(3-fluoro-2-oxo-2H-pyridin-1-ylmethyl)-pyridin-3-yl]-1-methyl-3,4-dihydro-1H-quinolin-2-one]",EC50,[1],0.5 nM
same,EC50,[2],23.8 nM
"Cc1ccn(Cc2cncc(-c3cc4c(cc3F)N(C)C(=O)CC4)c2)c(=O)c1 [Example 20, 7-Fluoro-1-methyl-6-[5-(4-methyl-2-oxo-2H-pyridin-1-ylmethyl)-pyridin-3-yl]-3,4-dihydro-1H-quinolin-2-one]",EC50,[1],11.6 nM
same,EC50,[2],506 nM
"CN1C(=O)CCc2cc(-c3cncc(Cn4cc(Cl)ccc4=O)c3)c(F)cc21 [Example 21, 6-[5-(5-Chloro-2-oxo-2H-pyridin-1-ylmethyl)-pyridin-3-yl]-7-fluoro-1-methyl-3,4-dihydro-1H-quinolin-2-one]",EC50,[1],15.1 nM
same,EC50,[2],569 nM
"CN1C(=O)CCc2cc(-c3cncc(Cn4c(Cl)cccc4=O)c3)c(F)cc21 [Example 22, 6-[5-(6-Chloro-2-oxo-2H-pyridin-1-ylmethyl)-pyridin-3-yl]-7-fluoro-1-methyl-3,4-dihydro-1H-quinolin-2-one]",EC50,[1],0.2 nM
same,EC50,[2],7.1 nM
"Cc1cccc(=O)n1Cc1cncc(-c2cc3c(cc2F)N(C)C(=O)CC3)c1 [Example 23, 7-Fluoro-1-methyl-6-[5-(6-methyl-2-oxo-2H-pyridin-1-ylmethyl)-pyridin-3-yl]-3,4-dihydro-1H-quinolin-2-one]",EC50,[1],12.5 nM
same,EC50,[2],3130 nM
